Source: publication PMC6792352, “Limited Chemical Structural Diversity Found to Modulate Thyroid Hormone Receptor in the Tox21 Chemical Library” (Environmental Health Perspectives, 2019)
Where a name gives a salt, the structure may show the parent alone.

Assay: in vitro
Settings: rat, gh3-tre-luc cells

Compound | CC50 at 24 h (AC50 (uM) modified / 1000) [µM] | also measured
CN(N=O)C(N)=O [N-Nitroso-N-methylurea] |  | CC50 at 24 h (AC50 (uM) modified / 1000, Tox21_110001=Tox21_302850, viability, 1 nM T3 present, 24 h): > 90 µM
CC(C)(C)CCCCCC(=O)O [Neodecanoic acid] | > 90 | 
O=C1c2ccccc2C(=O)c2c(O)ccc(O)c21 [1,4-Dihydroxyanthracene-9,10-dione] | > 90 | 
CC(C)CCO [Isopentyl alcohol] | > 90 | 
CC1(O)CCC(C(C)(C)O)CC1 (stereo not drawn) [Terpin] | > 50 | 
O=C1C(=O)c2cccc3cccc1c23 [Acenaphthenequinone] |  | CC50 at 24 h (AC50 (uM) modified / 1000, Tox21_110001=Tox21_202947, viability, 1 nM T3 present, 24 h): > 90 µM
CCOP(=S)(OCC)SCCSCC [Disulfoton] |  | CC50 at 24 h (AC50 (uM) modified / 1000, Tox21_110001=Tox21_202343, viability, 1 nM T3 present, 24 h): > 90 µM; CC50 at 24 h (AC50 (uM) modified / 1000, Tox21_110001=Tox21_300861, viability, 1 nM T3 present, 24 h): > 40 µM
CN[C@H]1C[C@@H](N)[C@H](O)[C@@H](O[C@@H]2O[C@H](CO)[C@H](O)[C@@H]3OC4(O[C@H]23)O[C@H]([C@@H](N)CO)[C@H](O)[C@H](O)[C@H]4O)[C@@H]1O (stereo partly drawn) [Hygromycin B] | > 50 | 
CC(C)(C1CCC(O)CC1)C1CCC(O)CC1 (stereo not drawn) [4,4'-Propane-2,2-diyldicyclohexanol] | > 90 | 
CC(=O)O[C@@H]1C(=O)O[C@H]2[C@@H]1OC(=O)[C@@H]2OC(C)=O [Aceglatone] | > 50 | 
C=Cc1ccc(OC(C)=O)cc1 [4-Ethenylphenyl acetate] | > 90 | 
O=S(=O)(O)c1cccc(S(=O)(=O)O)c1 [Disodium benzene-1,3-disulfonate] | > 90 | 
CCCCCC/C(C=O)=C\c1ccccc1 [Hexyl cinnamic aldehyde] | > 90 | 
CSC(C)(C)/C=N/O [Aldicarb oxime] | > 90 | 
C=CCOc1ccc(CC(=O)O)cc1Cl [Alclofenac] | > 50 | 
CC(C)(c1ccccc1)c1ccc(Nc2ccc(C(C)(C)c3ccccc3)cc2)cc1 [4-(2-Phenylpropan-2-yl)-N-[4-(2-phenylpropan-2-yl)phenyl]aniline] | > 90 | 
O=CO [Formic acid, potassium salt] | > 5 | 
COc1cc(C(=O)NC2CCCNC2)cc(OC)c1OC (stereo not drawn) [Troxipide] | > 50 | 

Compound | CC50 at 24 h (AC50 (uM) modified / 1000) [µM] | also measured
CC(C)NCC(O)COc1cccc2[nH]ccc12 (stereo not drawn) [Pindolol] | > 50 | 
NC(=O)N/N=C/c1ccc([N+](=O)[O-])o1 [Nitrofurazone] | > 90 | 
NP(N)(=O)NC(=O)c1ccc(F)cc1 [Flurofamide] | > 50 | 
CC1(C)S[C@@H]2[C@H](NC(=O)Cc3ccccc3)C(=O)N2[C@H]1C(=O)O [Penicillin G potassium] | > 50 | 
COc1ccc2cc1Oc1ccc(cc1)C[C@H]1c3c(cc4c(c3Oc3cc5c(cc3OC)CCN(C)[C@@H]5C2)OCO4)CCN1C [Cepharanthine] | 12.3 | 
CCCCCc1ccc(Cl)cc1 | > 90 | 
O=C(CCCN1CC=C(n2c(=O)[nH]c3ccccc32)CC1)c1ccc(F)cc1 [Droperidol] | > 50 | 
CN[C@H]1CC[C@@H](c2ccc(Cl)c(Cl)c2)c2ccc(S(N)(=O)=O)cc21 [UK-373911] | 4.55 | 
CCCCCCCC(=O)O [Octanoic acid] | > 90 | 
CCc1cc(C2=C(C(=O)O)N(c3ccccc3C(F)(F)F)S(=O)(=O)c3ccccc32)cc2c1OCO2 [Fandosentan potassium salt] | 8.29 | 
Cn1cc(C2=C(c3cn(C4CCN(Cc5ccccn5)CC4)c4ccccc34)C(=O)NC2=O)c2ccccc21 [Enzastaurin] | > 50 | 
CCCCCCCCCCCC(=O)O [Dodecanoic acid] | > 90 | 
CNC1(C)C2CCC(C2)C1(C)C (stereo not drawn) [Mecamylamine] | > 50 | 
CCCOc1nn(C(=O)NS(=O)(=O)c2ccccc2C(=O)OC)c(=O)n1C [Propoxycarbazone-sodium] | > 90 | 
CC(C)(C)NC[C@H](O)COc1nsnc1N1CCOCC1 [(S)-Timolol] | > 50 | 
C[C@@]1(c2ccc(Oc3ccccc3)cc2)OC(=O)N(Nc2ccccc2)C1=O (racemic) [Famoxadone] | 39 | 
CCN(CC)CCCN(c1ccccc1)C1Cc2ccccc2C1 [Aprindine hydrochloride] | 2.3 | 
